Results as given in ChEMBL document CHEMBL4390646, “A fragment-based approach towards the discovery of N-substituted tropinones as inhibitors of Mycobacterium tuberculosis transcriptional regulator EthR2” (Eur J Med Chem, 2019).
Active and inactive are the calls of the source. No cut-off for these calls is given here.

Legend:
[1] = tested on: Mycobacterium tuberculosis; assay: Inhibition of EthR2 in Mycobacterium tuberculosis assessed as potentiation of ETH bioactivation up to 30 uM using 0.1 ug/ml ETH
[2] = tested on: Mycobacterium tuberculosis; assay: Binding affinity to recombinant Mycobacterium tuberculosis EthR2 assessed as change in melting temperature at 20 uM by SYPRO Orange dye based fluorescence thermal shift assay
[3] = Inhibition of recombinant Mycobacterium tuberculosis EthR2 expressed in golden hamster BHK21 cells assessed as reduction in EthR2 and DNA interaction measured after 48 hrs by p-nitrophenyl phosphate based SEAP reporter gene assay; format: cell-based
[4] = tested on: Mycobacterium tuberculosis; assay: Binding affinity to recombinant Mycobacterium tuberculosis EthR2 assessed as change in melting temperature at 1 mM by Nano Orange dye based fluorescence thermal shift assay
[5] = target: HTH-type transcriptional regulator EthR (Mycobacterium tuberculosis) (UniProt P9WMC1); assay: Binding affinity to Mycobacterium tuberculosis EthR at 30 uM by mammalian reporter assay
Sequence of HTH-type transcriptional regulator EthR (Mycobacterium tuberculosis) (P9WMC1 whole entry): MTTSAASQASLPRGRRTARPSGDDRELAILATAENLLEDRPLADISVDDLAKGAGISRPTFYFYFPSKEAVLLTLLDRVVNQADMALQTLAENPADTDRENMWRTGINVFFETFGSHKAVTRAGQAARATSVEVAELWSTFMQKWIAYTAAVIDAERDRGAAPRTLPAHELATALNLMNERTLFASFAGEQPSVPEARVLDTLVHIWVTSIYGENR

O=C1CC2CCC(C1)N2CCc1ccncc1
Activity [1]: inactive | ΔTm [2]: 0 °C

Clc1ccc(CCN2C3CCC2CC2(C3)OCCO2)cc1
pIC50 [3]: < 4.8 | ΔTm [2]: 0.1 °C

O=C1C2CCCC1CN(CCc1ccc(Cl)cc1)C2
ΔTm [2]: -0.1 °C

O=C1CC2CCC(C1)N2CCc1ccc(Cl)c(Cl)c1
Activity [1]: inactive | pIC50 [3]: 6 | ΔTm [2]: 1 °C

O=C1CC2CCC(C1)N2CCc1cccc(C(F)(F)F)c1
ΔTm [2]: -0.1 °C

O=C1CC2CCC(C1)N2CCc1ccccc1
Activity [1]: inactive | pIC50 [3]: 5 | ΔTm [2]: 0.1 °C

O=C1CC2CCC(C1)N2CCc1ccc(Br)cc1
Activity [1]: inactive | pIC50 [3]: 6.1 | ΔTm [2]: 1 °C

FC(F)=C1CC2CCC(C1)N2CCc1ccc(Cl)cc1
pIC50 [3]: < 4.8 | ΔTm [2]: 0.6 °C

O=C1C2CCC1CN(CCc1ccc(Cl)cc1)C2
ΔTm [2]: 0.1 °C

O=C1CC2CCC(C1)N2CCc1ccccc1C(F)(F)F
ΔTm [2]: 0.3 °C

CCCNC(=O)Nc1cccc(C)n1
ΔTm [4]: 2.2 °C | pIC50 [3]: < 4

Cc1ccc(CCN2C3CCC2CC(=O)C3)cc1
Activity [1]: inactive | pIC50 [3]: 5.8 | ΔTm [2]: 0.6 °C

O=C1CC2CCCC(C1)N2CCc1ccc(Cl)cc1
Activity [1]: inactive | pIC50 [3]: 5.8 | ΔTm [2]: 0.6 °C

CC(C)Sc1nc2[nH]cnc(N)c-2n1
ΔTm [4]: 2.5 °C | pIC50 [3]: 5.1

O=C1CC2CCC(C1)N2CCc1ccc(Cl)cc1
ΔTm [4]: 3.4 °C | Activity [1]: inactive | pIC50 [3]: 6 | ΔTm [2]: 0.6 °C | Activity [5]: inactive

CC(Cc1ccc(Cl)cc1)N1C2CCC1CC(=O)C2 (stereo not drawn)
ΔTm [2]: 0.1 °C

Clc1cccc(CN2CCNCC2)c1
ΔTm [4]: 3.1 °C | pIC50 [3]: 5.5

COc1ccc(CCN2C3CCC2CC(=O)C3)cc1
ΔTm [2]: 0.3 °C

O=C1CC2CCC(C1)N2CCc1ccc(F)cc1
Activity [1]: inactive | pIC50 [3]: 5.6 | ΔTm [2]: 0.4 °C

O=C1CC2CCC(C1)N2C(=O)Cc1ccc(Cl)cc1
ΔTm [2]: -0.1 °C

COC1(OC)CC2CCC(C1)N2CCc1ccc(Cl)cc1
pIC50 [3]: < 4.8 | ΔTm [2]: 0.2 °C

O=C1CC2CCC(C1)N2CCc1ccc([N+](=O)[O-])cc1
ΔTm [2]: -0.2 °C

O=C1CC2CCC(C1)N2Cc1ccc(Cl)cc1
ΔTm [2]: 0 °C

N=C(N)Nc1nc2ccccc2s1
ΔTm [4]: 2.8 °C | pIC50 [3]: < 4

O=C1CC2CCC(C1)N2CCc1ccc(C(F)(F)F)cc1
Activity [1]: inactive | pIC50 [3]: 6.7 | ΔTm [2]: 1.8 °C

O=C1CC2CCC(C1)N2CCc1ccc(Cl)cc1Cl
pIC50 [3]: 5.7 | ΔTm [2]: 0.2 °C
